Values of other authors in PubChem BioAssay AID1259409 (Chemical Carcinogenesis Research Information System (CCRIS), 2018).

Tested on: rodent chemically induced tumor inhibition, incidence and multiplicity
Assay: CCRIS tumor inhibitor studies
Conditions: Species: RAT, Strain/Sex: F344/MALE

## O=P(O)(O)OC1C(OP(=O)(O)O)C(OP(=O)(O)O)C(OP(=O)(O)O)C(OP(=O)(O)O)C1OP(=O)(O)O (stereo not given)
Carcinogen: 2,2'-DIHYDROXY-DI-N-PROPYLNITROSAMINE [621-64-7], N-ETHYL-N-HYDROXYETHYLNITROSAMINE [13147-25-6], 3,2'-DIMETHYL-4-AMINOB, Carcinogen: 2,2'-DIHYDROXY-DI-N-PROPYLNITROSAMINE [621-64-7], N-ETHYL-N-HYDROXYETHYLNITROSAMINE [13147-25-6], 3,2'-DIMETHYL-4-AMINOB, Dose [Inhibitor]: 2% IN DIET FOR 32 WK BEGINNING 1 WK POST LAST CARCINOGEN DOSE (STUDY DURATION: 32 WK), Route [Inhibitor]: ORAL, Target Tissue: Type of Lesion: LIVER: ADENOMA, Dose [Carcinogen]: 1000 MG/KG BW DHPN IP 2X/3 WK, 1500 MG/KG BW EHEN IP 2X/3 WK, 75 MG/KG BW DMAB SC 3X/3 WK;, Dose [Carcinogen]: 1000 MG/KG BW DHPN IP 2X/3 WK, 1500 MG/KG BW EHEN IP 2X/3 WK, 75 MG/KG BW DMAB SC 3X/3 WK;, Promoter: NONE
  tumour outcome (control, treated, inhibition, significance): 9/14 (64%), 5/12 (42%), 34%, p<0.01
Carcinogen: 2,2'-DIHYDROXY-DI-N-PROPYLNITROSAMINE [621-64-7], N-ETHYL-N-HYDROXYETHYLNITROSAMINE [13147-25-6], 3,2'-DIMETHYL-4-AMINOB, Carcinogen: 2,2'-DIHYDROXY-DI-N-PROPYLNITROSAMINE [621-64-7], N-ETHYL-N-HYDROXYETHYLNITROSAMINE [13147-25-6], 3,2'-DIMETHYL-4-AMINOB, Dose [Inhibitor]: 2% IN DIET FOR 32 WK BEGINNING 1 WK POST LAST CARCINOGEN DOSE (STUDY DURATION: 32 WK), Route [Inhibitor]: ORAL, Target Tissue: Type of Lesion: LIVER: CARCINOMA, Dose [Carcinogen]: 1000 MG/KG BW DHPN IP 2X/3 WK, 1500 MG/KG BW EHEN IP 2X/3 WK, 75 MG/KG BW DMAB SC 3X/3 WK;, Dose [Carcinogen]: 1000 MG/KG BW DHPN IP 2X/3 WK, 1500 MG/KG BW EHEN IP 2X/3 WK, 75 MG/KG BW DMAB SC 3X/3 WK;, Promoter: NONE
  tumour outcome (control, treated, inhibition, significance): 6/14 (43%), 1/12 (8%), 81%, not significant
Carcinogen: 2,2'-DIHYDROXY-DI-N-PROPYLNITROSAMINE [621-64-7], N-ETHYL-N-HYDROXYETHYLNITROSAMINE [13147-25-6], 3,2'-DIMETHYL-4-AMINOB, Carcinogen: 2,2'-DIHYDROXY-DI-N-PROPYLNITROSAMINE [621-64-7], N-ETHYL-N-HYDROXYETHYLNITROSAMINE [13147-25-6], 3,2'-DIMETHYL-4-AMINOB, Dose [Inhibitor]: 2% IN DIET FOR 32 WK BEGINNING 1 WK POST LAST CARCINOGEN DOSE (STUDY DURATION: 32 WK), Route [Inhibitor]: ORAL, Target Tissue: Type of Lesion: LUNG: ADENOMA, Dose [Carcinogen]: 1000 MG/KG BW DHPN IP 2X/3 WK, 1500 MG/KG BW EHEN IP 2X/3 WK, 75 MG/KG BW DMAB SC 3X/3 WK;, Dose [Carcinogen]: 1000 MG/KG BW DHPN IP 2X/3 WK, 1500 MG/KG BW EHEN IP 2X/3 WK, 75 MG/KG BW DMAB SC 3X/3 WK;, Promoter: NONE
  tumour outcome (control, treated, inhibition, significance): 7/14 (50%), 9/12 (75%), -50%, not significant
Carcinogen: 2,2'-DIHYDROXY-DI-N-PROPYLNITROSAMINE [621-64-7], N-ETHYL-N-HYDROXYETHYLNITROSAMINE [13147-25-6], 3,2'-DIMETHYL-4-AMINOB, Carcinogen: 2,2'-DIHYDROXY-DI-N-PROPYLNITROSAMINE [621-64-7], N-ETHYL-N-HYDROXYETHYLNITROSAMINE [13147-25-6], 3,2'-DIMETHYL-4-AMINOB, Dose [Inhibitor]: 2% IN DIET FOR 32 WK BEGINNING 1 WK POST LAST CARCINOGEN DOSE (STUDY DURATION: 32 WK), Route [Inhibitor]: ORAL, Target Tissue: Type of Lesion: URINARY BLADDER: CARCINOMA, Dose [Carcinogen]: 1000 MG/KG BW DHPN IP 2X/3 WK, 1500 MG/KG BW EHEN IP 2X/3 WK, 75 MG/KG BW DMAB SC 3X/3 WK;, Dose [Carcinogen]: 1000 MG/KG BW DHPN IP 2X/3 WK, 1500 MG/KG BW EHEN IP 2X/3 WK, 75 MG/KG BW DMAB SC 3X/3 WK;, Promoter: NONE
  tumour outcome (control, treated, inhibition, significance): 1/14 (7%), 4/12 (33%), -371%, not significant
Carcinogen: 2,2'-DIHYDROXY-DI-N-PROPYLNITROSAMINE [621-64-7], N-ETHYL-N-HYDROXYETHYLNITROSAMINE [13147-25-6], 3,2'-DIMETHYL-4-AMINOB, Carcinogen: 2,2'-DIHYDROXY-DI-N-PROPYLNITROSAMINE [621-64-7], N-ETHYL-N-HYDROXYETHYLNITROSAMINE [13147-25-6], 3,2'-DIMETHYL-4-AMINOB, Dose [Inhibitor]: 2% IN DIET FOR 32 WK BEGINNING 1 WK POST LAST CARCINOGEN DOSE (STUDY DURATION: 32 WK), Route [Inhibitor]: ORAL, Target Tissue: Type of Lesion: URINARY BLADDER: PAPILLOMA, Dose [Carcinogen]: 1000 MG/KG BW DHPN IP 2X/3 WK, 1500 MG/KG BW EHEN IP 2X/3 WK, 75 MG/KG BW DMAB SC 3X/3 WK;, Dose [Carcinogen]: 1000 MG/KG BW DHPN IP 2X/3 WK, 1500 MG/KG BW EHEN IP 2X/3 WK, 75 MG/KG BW DMAB SC 3X/3 WK;, Promoter: NONE
  outcome: 0/14 (0%), 6/12 (50%), -100%, p<0.01
Carcinogen: 2,2'-DIHYDROXY-DI-N-PROPYLNITROSAMINE, 53609-64-6, N-ETHYL-N-HYDROXYETHYL- NITROSAMINE, 13147-25-6, 3,2'-DIMETHYL-4-, Carcinogen: 2,2'-DIHYDROXY-DI-N-PROPYLNITROSAMINE, 53609-64-6, N-ETHYL-N-HYDROXYETHYL- NITROSAMINE, 13147-25-6, 3,2'-DIMETHYL-4-, Dose [Inhibitor]: 0, 2% IN DIET BEGINNING 1 WK POST LAST CARCINOGEN DOSE AND CONTINUING FOR 32 WK (STUDY DURATION: 36 WK), Route [Inhibitor]: 0RAL, Target Tissue: Type of Lesion: URINARY BLADDER: CARCINOMA, Dose [Carcinogen]: 1000 MG/KG IP DHPN 2X, 1500 MG/KG GAV EHEN 2X AND 75 MG/KG SC DMAB 3X GIVEN OVER THE INITIAL 3 WK PERIOD AT 3-4 D INTERV, Promoter: NONE USED
  tumour outcome (control, treated, inhibition, significance): 1/14 (7%), 2/12 (17%), -143%, not calculated
Carcinogen: 2,2'-DIHYDROXY-DI-N-PROPYLNITROSAMINE, 53609-64-6, N-ETHYL-N-HYDROXYETHYL- NITROSAMINE, 13147-25-6, 3,2'-DIMETHYL-4-, Carcinogen: 2,2'-DIHYDROXY-DI-N-PROPYLNITROSAMINE, 53609-64-6, N-ETHYL-N-HYDROXYETHYL- NITROSAMINE, 13147-25-6, 3,2'-DIMETHYL-4-, Dose [Inhibitor]: 0, 2% IN DIET BEGINNING 1 WK POST LAST CARCINOGEN DOSE AND CONTINUING FOR 32 WK (STUDY DURATION: 36 WK), Route [Inhibitor]: ORAL, Target Tissue: Type of Lesion: LARGE INTESTINE: ADENOMA, Dose [Carcinogen]: 1000 MG/KG/ IP DHPN 2X, 1500 MG/KG GAV EHEN 2X AND 75 MG/KG SC DMAB 3X GIVEN OVER THE INITIAL 3 WK AT 3-4 D INTERVALS, Promoter: NONE USED
  tumour outcome (control, treated, inhibition, significance): 7/14 (50%), 5/12 (42%), 16%, not calculated
Carcinogen: 2,2'-DIHYDROXY-DI-N-PROPYLNITROSAMINE, 53609-64-6, N-ETHYL-N-HYDROXYETHYL- NITROSAMINE, 13147-25-6, 3,2'-DIMETHYL-4-, Carcinogen: 2,2'-DIHYDROXY-DI-N-PROPYLNITROSAMINE, 53609-64-6, N-ETHYL-N-HYDROXYETHYL- NITROSAMINE, 13147-25-6, 3,2'-DIMETHYL-4-, Dose [Inhibitor]: 0, 2% IN DIET BEGINNING 1 WK POST LAST CARCINOGEN DOSE AND CONTINUING FOR 32 WK (STUDY DURATION: 36 WK), Route [Inhibitor]: ORAL, Target Tissue: Type of Lesion: LARGE INTESTINE: CARCINOMA, Dose [Carcinogen]: 1000 MG/KG IP DHPN 2X, 1500 MG/KG GAV EHEN 2X AND 75 MG/KG SC DMAB 3X GIVEN OVER THE INITIAL 3 WK PERIOD AT 3-4 D INTERV, Promoter: NONE USED
  tumour outcome (control, treated, inhibition, significance): 3/14 (21%), 4/12 (33%), -57%, not calculated
Carcinogen: 2,2'-DIHYDROXY-DI-N-PROPYLNITROSAMINE, 53609-64-6, N-ETHYL-N-HYDROXYETHYL- NITROSAMINE, 13147-25-6, 3,2'-DIMETHYL-4-, Carcinogen: 2,2'-DIHYDROXY-DI-N-PROPYLNITROSAMINE, 53609-64-6, N-ETHYL-N-HYDROXYETHYL- NITROSAMINE, 13147-25-6, 3,2'-DIMETHYL-4-, Dose [Inhibitor]: 0, 2% IN DIET BEGINNING 1 WK POST LAST CARCINOGEN DOSE AND CONTINUING FOR 32 WK (STUDY DURATION: 36 WK), Route [Inhibitor]: ORAL, Target Tissue: Type of Lesion: LIVER: HEPATOCELLULAR CARCINOMA, Dose [Carcinogen]: 1000 MG/KG IP DHPN 2X, 1500 MG/KG GAV EHEN 2X AND 75 MG/KG SC DMAB 3X GIVEN OVER THE INITIAL 3 WK AT 3-4 D INTERVALS, Promoter: NONE USED
  tumour outcome (control, treated, inhibition, significance): 6/14 (43%), 1/12 (8%), 81%, not calculated
Carcinogen: 2,2'-DIHYDROXY-DI-N-PROPYLNITROSAMINE, 53609-64-6, N-ETHYL-N-HYDROXYETHYL- NITROSAMINE, 13147-25-6, 3,2'-DIMETHYL-4-, Carcinogen: 2,2'-DIHYDROXY-DI-N-PROPYLNITROSAMINE, 53609-64-6, N-ETHYL-N-HYDROXYETHYL- NITROSAMINE, 13147-25-6, 3,2'-DIMETHYL-4-, Dose [Inhibitor]: 0, 2% IN DIET BEGINNING 1 WK POST LAST CARCINOGEN DOSE AND CONTINUING FOR 32 WK (STUDY DURATION: 36 WK), Route [Inhibitor]: ORAL, Target Tissue: Type of Lesion: LUNG: ADENOMA, Dose [Carcinogen]: 1000 MG/KG IP DHPN 2X, 1500 MG/KG GAV EHEN 2X AND 75 MG/KG SC DMAB 3X GIVEN OVER THE INITIAL 3 WK PERIOD AT 3-4 D INTERV, Promoter: NONE USED
  tumour outcome (control, treated, inhibition, significance): 7/14 (50%), 9/12 (75%), -50%, not calculated
